#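 48-hour exposure; five concentrations; linearly interpolated endpoints. TGI: concentration producing complete growth inhibition.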
# What was measured:
# Assay in all cases: NCI tumour cell line growth inhibition, 48 h
# [1] = system: 786-0 renal
# [2] = system: NCI-H226 lung
# [3] = system: OVCAR-5 ovarian
# [4] = system: M14 melanoma
# [5] = system: DMS 114 small cell lung
# [6] = system: HCT-116 colon
# [7] = system: IGROV1 ovarian
# [8] = system: HOP-92 NSCLC
# [9] = system: DMS 273 small cell lung
# [10] = system: RPMI-8226 leukemia
# [11] = system: UO-31 renal
# [12] = system: NCI-H460 lung
# [13] = system: A549 NSCLC
# [14] = system: UACC-62 melanoma
# [15] = system: NCI-H522 lung
# [16] = system: HOP-62 NSCLC
# [17] = system: SW-620 colon
# [18] = system: XF 498 CNS
# [19] = system: KM12 colon
# [20] = system: SK-OV-3 ovarian
# [21] = system: K-562 leukemia
# [22] = system: MOLT-4 leukemia
# [23] = system: HCC-2998 colon
# [24] = system: CCRF-CEM leukemia
# [25] = system: NCI-H23 lung
# [26] = system: SF-295 CNS
# [27] = system: SNB-78 CNS
# [28] = system: EKVX NSCLC
# [29] = system: ACHN renal
# [30] = system: SK-MEL-28 melanoma
# [31] = system: MALME-3M melanoma
# [32] = system: COLO 205 colon
# [33] = system: SN12C renal
# [34] = system: TK-10 renal
# [35] = system: LXFL 529 NSCLC
# [36] = system: KM20L2 colon
# [37] = system: A498 renal
# [38] = system: SF-539 CNS
# [39] = system: HL-60(TB) leukemia
# [40] = system: SNB-75 CNS
# [41] = system: SNB-19 CNS
# [42] = system: RXF 393 renal
# [43] = system: U251 CNS
# [44] = system: OVCAR-4 ovarian
# [45] = system: DLD-1 colon
# [46] = system: M19-MEL melanoma
# [47] = system: OVCAR-8 ovarian
# [48] = system: UACC-257 melanoma
# [49] = system: HT29 colon
# [50] = system: HOP-18 NSCLC
# [51] = system: SR leukemia
# [52] = system: OVCAR-3 ovarian
# [53] = system: CAKI-1 renal
# [54] = system: LOX IMVI melanoma
# [55] = system: SF-268 CNS
# [56] = system: SK-MEL-2 melanoma
# [57] = system: SK-MEL-5 melanoma
# [58] = system: RXF-631 renal
compound,measurement,setting,value
COC(=O)/C(=C1\OC(=O)C(c2ccc(Cl)cc2)=C1O)c1ccc(Cl)cc1,TGI,[1],> 100 µM
same,TGI,[2],58.5 µM
same,TGI,[3],79.5 µM
same,TGI,[4],97.5 µM
same,TGI,[5],51.3 µM
same,TGI,[6],50.4 µM
same,TGI,[7],> 100 µM
same,TGI,[8],50.4 µM
same,TGI,[9],36.3 µM
same,TGI,[10],55.2 µM
same,TGI,[11],68.9 µM
same,TGI,[12],92.4 µM
same,TGI,[13],84.3 µM
same,TGI,[14],56.9 µM
same,TGI,[15],50.4 µM
same,TGI,[16],41.4 µM
same,TGI,[17],> 100 µM
same,TGI,[18],36.1 µM
same,TGI,[19],67.8 µM
same,TGI,[20],84.6 µM
same,TGI,[21],86.9 µM
same,TGI,[22],65.5 µM
same,TGI,[23],86.5 µM
same,TGI,[24],> 100 µM
same,TGI,[25],40.3 µM
same,TGI,[26],43 µM
same,TGI,[27],> 100 µM
same,TGI,[28],72.5 µM
same,TGI,[29],79.2 µM
same,TGI,[30],> 100 µM
same,TGI,[31],55.7 µM
same,TGI,[32],45 µM
same,TGI,[33],> 100 µM
same,TGI,[34],75.5 µM
same,TGI,[35],87.7 µM
same,TGI,[36],88.4 µM
same,TGI,[37],47.8 µM
same,TGI,[38],67.7 µM
same,TGI,[39],32.9 µM
same,TGI,[40],73 µM
same,TGI,[41],94.5 µM
same,TGI,[42],63 µM
same,TGI,[43],> 100 µM
same,TGI,[44],> 100 µM
same,TGI,[45],> 100 µM
same,TGI,[46],66.2 µM
same,TGI,[47],> 100 µM
same,TGI,[48],48.8 µM
same,TGI,[49],> 100 µM
same,TGI,[50],> 100 µM
same,TGI,[51],80.9 µM
same,TGI,[52],87.6 µM
same,TGI,[53],57.9 µM
same,TGI,[54],64.4 µM
same,TGI,[55],> 100 µM
CC(C)c1cccc(C(C)C)c1NC(=O)/C(Cc1nc2ccc(Cl)cc2[nH]c1=O)=N\NC(=O)C[N+](C)(C)C,TGI,[1],> 100 µM
same,TGI,[3],> 100 µM
same,TGI,[4],> 100 µM
same,TGI,[5],> 100 µM
same,TGI,[6],> 100 µM
same,TGI,[7],> 100 µM
same,TGI,[8],> 100 µM
same,TGI,[10],> 100 µM
same,TGI,[11],> 100 µM
same,TGI,[12],> 100 µM
same,TGI,[13],> 100 µM
same,TGI,[14],> 100 µM
same,TGI,[15],> 100 µM
same,TGI,[56],> 100 µM
same,TGI,[16],> 100 µM
same,TGI,[57],> 100 µM
same,TGI,[17],> 100 µM
same,TGI,[19],> 100 µM
same,TGI,[20],> 100 µM
same,TGI,[21],> 100 µM
same,TGI,[22],> 100 µM
same,TGI,[23],> 100 µM
same,TGI,[24],> 100 µM
same,TGI,[25],> 100 µM
same,TGI,[26],> 100 µM
same,TGI,[28],> 100 µM
same,TGI,[29],> 100 µM
same,TGI,[30],> 100 µM
same,TGI,[31],> 100 µM
same,TGI,[32],> 100 µM
same,TGI,[33],> 100 µM
same,TGI,[34],> 100 µM
same,TGI,[36],> 100 µM
same,TGI,[37],> 100 µM
same,TGI,[38],> 100 µM
same,TGI,[39],> 100 µM
same,TGI,[41],> 100 µM
same,TGI,[58],> 100 µM
same,TGI,[42],> 100 µM
same,TGI,[44],> 100 µM
same,TGI,[45],> 100 µM
same,TGI,[46],> 100 µM
same,TGI,[47],> 100 µM
same,TGI,[48],> 100 µM
same,TGI,[49],> 100 µM
same,TGI,[51],> 100 µM
same,TGI,[52],> 100 µM
same,TGI,[53],> 100 µM
same,TGI,[55],> 100 µM

# — PubChem BioAssay (NCI)
